Experimental data as given in patent publication EP0071535B1, “(4-(2 and/or 3-Thienylacetamido)-phenoxy)-hydroxyaminopropanes, their preparation, their therapeutic use and intermediates” (CARPIBEM (CENTRE D'ACTIVITE ET DE RECHERCHE PHARMACEUTIQUE …, priority 1981, dated 1983).

How the values were obtained:
[1] = test system: effets β1 (augmentation de la force contractile du myocarde) de l'isoprénaline; assay: β-blocking activity: inhibition of the β1 effects of intravenous isoprenaline in anaesthetised dogs; assay type: in vivo, chiens; conditions: dog; for inhibition at 0.001 mg/kg / inhibition at 0.003 mg/kg / inhibition at 0.01 mg/kg / inhibition at 0.1 mg/kg: Canis lupus familiaris, iv, inhibition given with negative sign, read-out: % d'inhibition des effets β1^(+) de l'Isoprénaline; for inhibition at 0.001 mg/kg: 0,001 mg/kg I.V.; for inhibition at 0.003 mg/kg: 0,003 mg/kg I.V.; for inhibition at 0.01 mg/kg: 0,010 mg/kg I.V.; for inhibition at 0.1 mg/kg: 0,100 mg/kg I.V.
Experimental: (§1) Des chiens tout-venants mâles ou femelles sont anesthésiés au mébubarbital sodique (30 mg/kg I.V.) et ventilés artificiellement par une pompe Pesty RPP. Ils sont supplémentés en oxygène.
(§2) On mesure: • - la pression carotidienne systolique et diastolique • - la force contractile du myocarde.
(§3) Les signaux sont amplifiés et enregistrés sur Dynograph Beckman.
(§4) L'activité β bloquante adrénergique a été étudiée vis-à-vis des effets β1 (augmentation de la force contractile du myocarde) et des effets P2 (diminution de la pression artérielle disstolique) de l'isoprénaline administrée par voie intraveineuse.
(§5) On calcule le pourcentsge d'inhibition des effets β1 et des effets β2 de l'isoprénaline en fonction des doses (mg.kg I.V.) des différents exemples.
(§6) Les exemples sont injectés dans le veine saphène aux doses (exprimées en base) de: 0,0003 0,001 0,003 0,01 0,1 1,0 et 4,0 ou 8,0 mg.kg-1.

[2] = test system: effets β2 (diminution de la pression artérielle diastolique) de l'isoprénaline; assay: β-blocking activity: inhibition of the β2 effects of intravenous isoprenaline in anaesthetised dogs; assay type: in vivo, chiens; conditions: dog; for inhibition at 0.001 mg/kg / inhibition at 0.003 mg/kg / inhibition at 0.01 mg/kg / inhibition at 0.1 mg/kg: Canis lupus familiaris, iv, inhibition given with negative sign, read-out: % d'inhibition des effets β2^⊕ de l'Isoprénaline; for inhibition at 0.001 mg/kg: 0,001 mg/kg I.V.; for inhibition at 0.003 mg/kg: 0,003 mg/kg I.V.; for inhibition at 0.01 mg/kg: 0,010 mg/kg I.V.; for inhibition at 0.1 mg/kg: 0,100 mg/kg I.V.
Experimental: as §1, §2, §3, §4, §5, §6

[3] = test system: rat génétiquement hypertendu: Rat OKAMOTO; assay: Antihypertensive activity in spontaneously hypertensive rats (tail-cuff systolic pressure and heart rate after oral dosing); assay type: in vivo
Experimental: Des rats mâles âgés de 13 à 21 semaines présentant une hypertension spontanée génétiquement transmissible (souche OKAMOTO provenance IFFA CREDO) sont placés dans une enceinte thermostatée à 38°C. Les rats sont laissés en situation libre. La pression artérielle est mesurée par un sphygmomanomètre Narco Biosystem. Un manchon est placé à la base de la queue et un détecteur enregistre le pouls en aval du manchon. Celui-ci est gonflé jusqu'à suppression du pouls il est ensuite progressivement dégonflé. La pression mesurée à la reprise des battements cardiaques est la pression artérielle systolique. On calcule la fréquence cardiaque à partir de l'enregistrement du pouls artériel. Les produits à étudiar sont mis en suspension el administrés par voie orale sous un volume de 1 ml pour 100 g de poids corporel. Les mesures sont répétées à intervalles réguliers.
Les valeurs moyennes avant traitement pour les différents lots de rats sont pour la pression artérielle systolique de 190 à 200 mmHg et pour la fréquence cardiaque de 305 à 350 battements par minute.
Le tableau III ci-après donne la moyenne des variations de la pression systolique (mmHg) de la fréquence cardisque (battements/minute) et les écarts type à la moyenne obtenus 1 heure 3 heures et 5 heures après administration orale.

[4] = 0.003 mg.kg^-1 voie intraveineuse
[5] = 0.01 mg.kg^-1 voie intraveineuse
[6] = 0.1 mg.kg^-1 voie intraveineuse
[7] = 1.0 mg.kg^-1 voie intraveineuse
[8] = 8.0 mg.kg^-1 voie intraveineuse
[9] = 128 mg.kg^-1 V.O, T+3 heures, mean

SMILES: CC(C)(C)NCC(O)COc1ccc(NC(=O)Cc2cccs2)cc1Cl (stereo not drawn) [exemple 43, 1-[2-chloro 4-(2-thiénylacétamido)phénoxy] 3-terbutylamino 2-propanol]
- inhibition at 0.001 mg/kg [1]: -18%
- inhibition at 0.003 mg/kg [1]: -49%
- inhibition at 0.01 mg/kg [1]: -82%
- inhibition at 0.1 mg/kg [1]: -100%
- inhibition at 0.001 mg/kg [2]: 0%
- inhibition at 0.003 mg/kg [2]: 0%
- inhibition at 0.01 mg/kg [2]: 0%
- inhibition at 0.1 mg/kg [2]: -22%
- Fréquence cardiaque Δ (battements/min) T+1 heure m (sm) ([3]; 64 mg.kg^-1 V.O, T+1 heure): +13 (20) battements/min
- Pression systolique Δ (mmHg) T+1 heure m (sm) ([3]; 64 mg.kg^-1 V.O, T+1 heure): -29 (9) mmHg
- Fréquence cardiaque Δ (battements/min) T+3 heures m (sm) ([3]; 64 mg.kg^-1 V.O, T+3 heures): +23 (7) battements/min
- Pression systolique Δ (mmHg) T+3 heures m (sm) ([3]; 64 mg.kg^-1 V.O, T+3 heures): -44 (6) mmHg
- Fréquence cardiaque Δ (battements/min) T+5 heures m (sm) ([3]; 64 mg.kg^-1 V.O, T+5 heures): +30 (12) battements/min
- Pression systolique Δ (mmHg) T+5 heures m (sm) ([3]; 64 mg.kg^-1 V.O, T+5 heures): -44 (4) mmHg

SMILES: C=CCc1cc(NC(=O)Cc2ccsc2)ccc1OCC(O)CNC(C)(C)C (stereo not drawn) [exemple 38, 1-[2-allyl 4-(3-thiénylacétamido)phénoxy] 3-terbutylamino 2-propanol]
- inhibition at 0.001 mg/kg [1]: -5%
- inhibition at 0.003 mg/kg [1]: -35%
- inhibition at 0.01 mg/kg [1]: -73%
- inhibition at 0.1 mg/kg [1]: -100%
- inhibition at 0.001 mg/kg [2]: -4%
- inhibition at 0.003 mg/kg [2]: -4%
- inhibition at 0.01 mg/kg [2]: -6%
- inhibition at 0.1 mg/kg [2]: -27%
- Fréquence cardiaque Δ (battements/min) T+1 heure m (sm) ([3]; 64 mg.kg^-1 V.O, T+1 heure): +39 (9) battements/min
- Pression systolique Δ (mmHg) T+1 heure m (sm) ([3]; 64 mg.kg^-1 V.O, T+1 heure): -31 (5) mmHg
- Fréquence cardiaque Δ (battements/min) T+3 heures m (sm) ([3]; 64 mg.kg^-1 V.O, T+3 heures): +21 (9) battements/min
- Pression systolique Δ (mmHg) T+3 heures m (sm) ([3]; 64 mg.kg^-1 V.O, T+3 heures): -26 (5) mmHg
- Fréquence cardiaque Δ (battements/min) T+5 heures m (sm) ([3]; 64 mg.kg^-1 V.O, T+5 heures): +29 (13) battements/min
- Pression systolique Δ (mmHg) T+5 heures m (sm) ([3]; 64 mg.kg^-1 V.O, T+5 heures): -34 (7) mmHg

SMILES: CC(C)(C)NCC(O)COc1ccc(NC(=O)Cc2cccs2)cc1C#N (stereo not drawn) [exemple 7, 1-[2-cyano 4-(2-thiénylacétamido)phénoxy] 3-terbutylamino 2-propanol]
- Pourcentages d'inhibition des effets β1 de l'Isoprénaline ([1]; 0.001 mg.kg^-1 voie intraveineuse): 24%
- Pourcentages d'inhibition des effets β1 de l'Isoprénaline [1, 4]: 70%
- Pourcentages d'inhibition des effets β1 de l'Isoprénaline [1, 5]: 86%
- Pourcentages d'inhibition des effets β1 de l'Isoprénaline [1, 6]: 100%
- Pourcentages d'inhibition des effets β1 de l'Isoprénaline [1, 7]: 100%
- Pourcentages d'inhibition des effets β1 de l'Isoprénaline [1, 8]: 100%
- inhibition at 0.001 mg/kg [1]: -24%
- inhibition at 0.003 mg/kg [1]: -70%
- inhibition at 0.01 mg/kg [1]: -86%
- inhibition at 0.1 mg/kg [1]: -100%
- Pourcentages d'inhibition des effets β2 de l'Isoprénaline [2, 4]: 4%
- Pourcentages d'inhibition des effets β2 de l'Isoprénaline [2, 5]: 16%
- Pourcentages d'inhibition des effets β2 de l'Isoprénaline [2, 6]: 36%
- Pourcentages d'inhibition des effets β2 de l'Isoprénaline [2, 7]: 88%
- Pourcentages d'inhibition des effets β2 de l'Isoprénaline [2, 8]: 100%
- inhibition at 0.001 mg/kg [2]: 0%
- inhibition at 0.003 mg/kg [2]: -4%
- inhibition at 0.01 mg/kg [2]: -16%
- inhibition at 0.1 mg/kg [2]: -36%
- Fréquence cardiaque Δ (battements/min) T+1 heure m (sm) ([3]; 128 mg.kg^-1 V.O, T+1 heure): +36 (4) battements/min
- Pression systolique Δ (mmHg) T+1 heure m (sm) ([3]; 128 mg.kg^-1 V.O, T+1 heure): -27 (5) mmHg
- Pression systolique Δ (mmHg) T+1 heure m ([3]; 128 mg.kg^-1 V.O, T+1 heure, mean): -27 mmHg
- Fréquence cardiaque Δ (battements/min) T+3 heures m (sm) ([3]; 128 mg.kg^-1 V.O, T+3 heures): +29 (4) battements/min
- Pression systolique Δ (mmHg) T+3 heures m (sm) ([3]; 128 mg.kg^-1 V.O, T+3 heures): -27 (5) mmHg
- Fréquence cardiaque Δ (battements/minute) T + 3 heures m [3, 9]: +29 battements/minute
- Pression systolique Δ (mmHg) T+3 heures m [3, 9]: -27 mmHg
- Fréquence cardiaque Δ (battements/min) T+5 heures m (sm) ([3]; 128 mg.kg^-1 V.O, T+5 heures): +25 (9) battements/min
- Pression systolique Δ (mmHg) T+5 heures m (sm) ([3]; 128 mg.kg^-1 V.O, T+5 heures): -31 (5) mmHg
- Pression systolique Δ (mmHg) T+5 heures m ([3]; 128 mg.kg^-1 V.O, T+5 heures, mean): -31 mmHg
